We go through seven compounds from patent US12673039B2, “Methods of inducing autophagy using coumarin derivatives and related compounds” (Buck Institute for Research on Aging, priority 2019, dated 2026).

Common to all, as to format: cell-based, human
One assay concerns SH-SY5Y cells. The assay is described as follows: Immunoblot of TFEB, cathepsin-D and SHP-1 in SH-SY5Y cells. As to conditions: 24 hours. On the procedure:
FIG. 23, panels A-H: FXR modulation enhances HLH-30 expression in human neuronal SH-SY5Y cells. Panel A) Effects of AIC106 on human FXR activity was determined in a mammalian one-hybrid based kit assay by quantifying changes in the luciferase activity of FXR ligand (GW4064, GW) induced treatment. [N=3 independent experiments (mean±SD). ****p<0.0001, by one-way ANOVA with Tukey's multiple comparisons test]. Panel B) Protein expression of TFEB, cathepsin-D (CAT-D) and small heterodimer partner-1 (SHP-1) was determined by immunoblot in neuronal SH-SY5Y cells post-24 hours of treatment with AIC106 and DMSO-control. Panel C) AIC106 enhances autophagic flux in neuronal SH-SY5Y cells. Autophagic flux in DMSO-control and AIC106 treated neuronal cells was determined by quantifying levels of autophagosome specific LC3-II protein both in presence and absence of autophagy inhibitor bafliomycin A1 (Baf A, 10 nM). Panel D) Relative fold change in the band intensity of LC3-II protein, normalized to loading control actin. Values are relative to DMSO-control. [N=3 independent experiments (mean±SD). *p<0.05 and ****p<0.0001, by one-way ANOVA with Tukey's multiple comparisons test]. Panel E) Effects of AIC106 treatment for 72 hours on basal TAU and phosphorylated-TAU in differentiated human neuronal SH-SHY5Y and heterozygous TSC1(+/−) mutant SH-SY5Y neuronal cells were quantitated by immunoblotting following total protein extraction. Relative fold change in the band intensity compared to SH-SY5Y control treatment for (panel F) total TAU and (panel G) phosphorylated-TAU, normalized to loading control GAPDH. [N=3 independent experiments (mean±SD). *p<0.05 and **p<0.01, by one-way ANOVA with Sidak's multiple comparisons test]. Panel H) AIC106 treatment improves viability and health of differentiated SH-SY5Y-TSC1(+/−) neuronal cells. Images were taken post-96 hours after treatment of differentiated neuronal cells with AIC106.
(§1) FIG. 30, panels A-B: FXR modulation enhances HLH-30 expression in human neuronal SH-SY5Y cell. Panel A) TFEB expression in SH-SY5Y cells was determined by immunoblot against TFEB in protein lysates collected after 24 hours of treatment with FXR agonist GW4064 and DMSO control. Panel B) Phosphorylated-TAU levels in SH-SY5Y-P301L-TAU cells was determined by immunoblot against (Ser202, Thr205) in protein lysates collected after 24 hours of treatment with known FXR antagonist Z-gugglsterone (z-GG), DY268 and DMSO control.
A general note: In western blotting, separated proteins are transferred to a membrane and probed.

A further assay deals with SH-SY5Y-P301L-TAU cells. The assay is described as follows: Phosphorylated-TAU immunoblot in SH-SY5Y-P301L-TAU cells. As to conditions: SH-SY5Y cells expressing mutant P301L-TAU, 24 hours. The procedure:
as §1

The target of a further assay is T1, DAF-12 (Caenorhabditis elegans, UniProt G5EFF5).
T1 construct: expressed in transfected cells; host or cells: HEK293T
T1 sequence (G5EFF5 516-753 limits assumed): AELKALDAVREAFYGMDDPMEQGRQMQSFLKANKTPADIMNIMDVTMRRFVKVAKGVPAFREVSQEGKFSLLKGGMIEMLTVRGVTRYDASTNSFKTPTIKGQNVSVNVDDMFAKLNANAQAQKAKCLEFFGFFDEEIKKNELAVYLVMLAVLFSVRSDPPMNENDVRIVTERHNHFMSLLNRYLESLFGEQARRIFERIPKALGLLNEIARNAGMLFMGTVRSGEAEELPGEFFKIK
The experiment in a line: Mammalian one-hybrid DAF-12 activity assay (HEK293T). As to conditions: compound alone. The procedure:
FIG. 10 illustrates that coumarin 106 (“C1”, “AIC106”) inhibits induction of the worm FXR homologue DAF-12. The ability of C1 (10 μM) to inhibit activation of the FXR worm homologue DAF-12 by its ligand dafachronic acid (Df acid); values are fold activity induction versus untreated controls; ****p<0.01 versus GW; **p<0.05 versus GW.
FIG. 22, panels A-H: AIC106-induced HLH-30 expression is mediated by the nuclear hormone receptor DAF-12. Panel A) The upstream promoter region (2 kB) of hlh-30 was analyzed by JASPAR CORE database to determine DAF-12 binding sites (1: SEQ ID NO:1, 2: 1: SEQ ID NO:2, 3: SEQ ID NO:3, 4: SEQ ID NO:4, 5: SEQ ID NO:5, 6: SEQ ID NO:6, 7: SEQ ID NO:7, 8: SEQ ID NO:8, 9: SEQ ID NO:9, 10: SEQ ID NO:10, 11: SEQ ID NO:11, 12: SEQ ID NO:12). Panel B) Relative fold change in mRNA of hlh-30 compared to DMSO-control was quantified using qRT-PCR in young adult wild-type N2 and daf-12(rh61rh411) worms post-24 hours treatment with AIC106. [N=3 independent experiments (mean±SD). **p<0.01, by one-way ANOVA with Sidak's multiple comparisons test]. Panel C) Effects of AIC106 on DAF-12 activity was determined in a mammalian one-hybrid assay by quantifying changes in the luciferase activity of DAF-12 ligand (dafachronic acid, DA) induced treatment. [N=3 independent experiments (mean±SD). *p<0.05 **p<0.01 and ***p<0.001, by one-way ANOVA with Tukey's multiple comparisons test]. Panel D) Schematic diagram showing that addition of AIC106 or inhibition of DAF-12 ligand synthesis, which leads to un-liganded DAF-12 may result in enhanced HLH-30 expression. Panel E) Dafadine-A (DFA), a specific inhibitor of key enzyme required for synthesis of DAF-12 ligand induces HLH-30 expression. Immunoblot for GFP was performed on protein lysate of HLH-30; GFP (MAH235) young adult worms treated with DFA or DMSO-control for 24 hours. Panel F) Protection against mitochondrial toxin (FCCP) was determined by quantifying survival of young adult worms treated 24 hours with DFA or DMSO-control. [N=3 independent experiments (mean±SD). **p<0.01, by two-way ANOVA with Tukey's multiple comparisons test]. Panel G) Motor function in day-7 NL5901 worms were quantified by scoring number of thrashes for an individual worm over the period of 30 seconds (dots) in DFA and DMSO-control treatment. [N=3 independent experiments (mean±SD). **p<0.01, by unpaired t-test] […] [N=3 independent experiments (mean±SD). *p<0.05, by one-way ANOVA with Tukey's multiple comparisons test].
FIG. 29, panels A-C: AIC106 modulates DAF-12 activity. […] Luciferase activity was measured to quantify DAF-12 activity. Panel C) Dose dependent increase in DAF-12 activity after treatment with known DAF-12 ligand, dafachronic acid (DA) was determined by quantifying luciferase activity. […]

A further assay deals with TFEB. The experiment in a line: TFEB activation screen, % activation/control at 24 and 48 hrs (Table 1). As to conditions: Homo sapiens, 24 h. On the procedure: FIG. 25, panels A-B::AIC106 identified as a lead compound in a TFEB-transcription based screen. Panel A) Rat Neuronal N27 cells were transfected with a vector construct driving expression of secreted-Gaussia luciferase (Sec-Gaussia) in control of 2 kb human TFEB promoter. Next day, cells were seeded into 96-well cell culture plate and exposed to compounds (30 μM) from natural product library (NPL-640) or DMSO-control. After 24 and 48 hours of compound treatment supernatant from the cells was collected and TFEB promoter activity determined by quantifying luciferase activity. Panel B) Effects of AIC106 treatment on HLH-30 expression after 24 hours treatment were determined by immunoblot against GFP in young adult stage of GFP-tagged HLH-30 strain (MAH235) following total protein extraction.
It was discovered that small structural alterations in the C1 compound can have significant effects on the degree of TFEB activation (see, e.g., FIG. 17) the screening systems described herein identified a number of structures related to C1 that similarly induce TFEB.
In vitro drug screening studies. […] We utilized for these studies a 3000 compound natural product derivative library (Timtec, Newark, DE) in […] transfected with a sensitive TFEB promotor-Gaussian luciferase construct. […] C1 is a coumarin-related compound, part of a family of natural benzopyrones found in many edible plants.
To identify novel transcriptional inducers of TFEB, we transfected rat neuronal N27 cells with a vector driving expression of secreted-luciferase under control of the human TFEB promoter. […] AIC106 belongs to a family of coumarin compounds containing an active benzopyrone ring.

In the case of `CC(C)c1onc(-c2c(Cl)cccc2Cl)c1COc1ccc(/C=C/c2cccc(C(=O)O)c2)c(Cl)c1` [GW4064, reference compound], the TFEB protein expression result in the assay with SH-SY5Y cells is “reduced TFEB expression”.

`COc1cccc(Cn2cc(C(=O)Nc3ccc(C)c(S(=O)(=O)N4CCOCC4)c3)c(-c3ccc(C)cc3)n2)c1` [DY268]: in the assay on SH-SY5Y-P301L-TAU cells, the phosphorylated-TAU expression result is reported as “reduced expression of phosphorylated-TAU”.

Regarding `C/C=C1\C(=O)C[C@H]2[C@@H]3CCC4=CC(=O)CC[C@]4(C)[C@H]3CC[C@]12C` [Z-guggulsterone], the phosphorylated-TAU expression result in the assay on SH-SY5Y-P301L-TAU cells was “reduced expression of phosphorylated-TAU”.

Consider dafachronic acid [reference compound], for which the “DAF-12 activity (luciferase)” value on DAF-12 was “increase DAF-12 activity in a dose dependent manner”.

On to `COc1ccc(-c2c(-c3ccccc3)c3ccc(O)cc3oc2=O)c(Cl)c1` [F2], for which the activity at 30 µM in the assay with TFEB came out at 341%.

For the compound `O=c1oc2cc(O)ccc2c(-c2ccccc2)c1-c1cccc(Cl)c1` [H2], the activity at 30 µM in the assay on TFEB came to 334%.

With `O=c1oc2ccc(Cl)cc2c(-c2ccccc2)c1-c1ccccc1Cl` [D4], the activity at 30 µM in the assay on TFEB amounted to 369%.
